{
  "source": "patent US10413501B2",
  "about": "“Cosmetic composition containing halomonas ferment extract, and use thereof” (LUBRIZOL ADVANCED MATERIALS, INC., priority 2014, dated 2019)",
  "test_system": "Primary Human Subcutaneous Preadipocytes",
  "type": "cell-based",
  "conditions": "2.5 ug/mL",
  "method": "Quantification of adipogenesis is evaluated with AdipoRed™ Adipogenesis Assay Reagent (Lonza). The increase of the accumulation of lipids is determined by measuring the fluorescence signal of Nile Red in primary human Primary Human Subcutaneous Preadipocytes after treatment with exopolysaccharide produced by the strain of Halomonas eurihalina species with deposit number LMG P-28571 obtained in accordance with example 1 in Adipocyte Differentiation Medium. Cells treated with Adipocyte Differentiation Medium alone are used as a basal control. Human preadipocytes (from a donor) (ZENBIO) are seeded (13,000 cells/well, 5 wells per condition) in 96-clear well plates in Preadipocyte Growth Medium (ZENBIO). The cells are incubated for 24 hours at 37° C. in a water-saturated atmosphere of 95% air and 5% CO2. […] In the basal control, preadipocytes are treated with the Adipocyte Differentiation Medium only. As a negative control, preadipocytes are treated with the Adipocyte Differentiation Medium and caffeine. Quantification of the accumulation of lipids is carried out by AdipoRed™ reagent (LONZA) assay. […] The percentage of normalized lipid accumulation compared with the basal control is calculated.",
  "data": [
    {"smiles": "Cn1c(=O)c2c(ncn2C)n(C)c1=O", "note": "[Caffeine, caffeine]", "values": [
      {"measurement": "% Lipid accumulation vs basal control", "result": 87.50, "unit": "%"}
    ]}
  ]
}
